Tests used:
[1] = target: Cholecystokinin receptor type A (Homo sapiens) (UniProt P32238); assay: CCK1 (CCKA) (h) Eurofins-Cerep binding assay; conditions: filed as agonist, Compound concentration 10.0 uM
[2] = target: Histamine H2 receptor (Homo sapiens) (UniProt P25021); assay: H2 (h) Eurofins-Cerep binding assay; parameters: ligand concentration 0.075 nM; conditions: filed as antagonist, Compound concentration 10.0 uM
[3] = target: Glutamate NMDA receptor (Rattus norvegicus) (UniProt P35439+Q00959+Q00960+Q00961+Q62645+Q8VHN2+Q9R1M7); assay: PCP Eurofins-Cerep binding assay; assay type: protein-complex assay; parameters: ligand concentration 10 nM; conditions: filed as antagonist, Compound concentration 10.0 uM
[4] = target: Vasoactive intestinal polypeptide receptor 1 (Homo sapiens) (UniProt P32241); assay: VPAC1 (VIP1) (h) Eurofins-Cerep binding assay; conditions: filed as agonist, Compound concentration 10.0 uM
[5] = target: Cytoplasmic tyrosine-protein kinase BMX (Homo sapiens) (UniProt P51813); conditions: Compound concentration 1000.0 nM
[6] = target: Dual specificity protein kinase CLK2 (Homo sapiens) (UniProt P49760); conditions: Compound concentration 1000.0 nM
[7] = target: Casein kinase I isoform alpha-like (Homo sapiens) (UniProt Q8N752); conditions: Compound concentration 1000.0 nM
[8] = target: Serine/threonine-protein kinase DCLK3 (Homo sapiens) (UniProt Q9C098); conditions: Compound concentration 1000.0 nM
[9] = target: Ephrin type-A receptor 5 (Homo sapiens) (UniProt P54756); conditions: Compound concentration 1000.0 nM
[10] = target: Ephrin type-A receptor 6 (Homo sapiens) (UniProt Q9UF33); conditions: Compound concentration 1000.0 nM
[11] = target: Ephrin type-B receptor 4 (Homo sapiens) (UniProt P54760); conditions: Compound concentration 1000.0 nM
[12] = target: Mitogen-activated protein kinase 3 (Homo sapiens) (UniProt P27361); conditions: Compound concentration 1000.0 nM
[13] = target: Fibroblast growth factor receptor 4 (Homo sapiens) (UniProt P22455); conditions: Compound concentration 1000.0 nM
[14] = target: Tyrosine-protein kinase Fgr (Homo sapiens) (UniProt P09769); conditions: Compound concentration 1000.0 nM
[15] = system: Receptor-type tyrosine-protein kinase FLT3 (Homo sapiens), P36888 [D835Y]; conditions: Compound concentration 1000.0 nM
[16] = target: Vascular endothelial growth factor receptor 3 (Homo sapiens) (UniProt P35916); conditions: Compound concentration 1000.0 nM
[17] = target: Tyrosine-protein kinase FRK (Homo sapiens) (UniProt P42685); conditions: Compound concentration 1000.0 nM
[18] = target: Cyclin-G-associated kinase (Homo sapiens) (UniProt O14976); conditions: Compound concentration 1000.0 nM
[19] = system: eIF-2-alpha kinase GCN2 (Homo sapiens), Q9P2K8 [S808G]; conditions: Compound concentration 1000.0 nM
[20] = target: Rhodopsin kinase GRK7 (Homo sapiens) (UniProt Q8WTQ7); conditions: Compound concentration 1000.0 nM
[21] = target: Hormonally up-regulated neu tumor-associated kinase (Homo sapiens) (UniProt P57058); conditions: Compound concentration 1000.0 nM
[22] = target: Mast/stem cell growth factor receptor Kit (Homo sapiens) (UniProt P10721); conditions: Compound concentration 1000.0 nM
[23] = target: Serine/threonine-protein kinase LATS2 (Homo sapiens) (UniProt Q9NRM7); conditions: Compound concentration 1000.0 nM
[24] = target: Mitogen-activated protein kinase kinase kinase 2 (Homo sapiens) (UniProt Q9Y2U5); conditions: Compound concentration 1000.0 nM
[25] = target: Microtubule-associated serine/threonine-protein kinase 1 (Homo sapiens) (UniProt Q9Y2H9); conditions: Compound concentration 1000.0 nM
[26] = system: Hepatocyte growth factor receptor (Homo sapiens), P08581 [Y1235D]; conditions: Compound concentration 1000.0 nM
[27] = target: Dual specificity mitogen-activated protein kinase kinase 7 (Homo sapiens) (UniProt O14733); conditions: Compound concentration 1000.0 nM
[28] = target: Serine/threonine-protein kinase mTOR (Homo sapiens) (UniProt P42345); conditions: Compound concentration 1000.0 nM
[29] = target: Myosin light chain kinase, smooth muscle (Homo sapiens) (UniProt Q15746); conditions: Compound concentration 1000.0 nM
[30] = target: Cyclin-dependent kinase 17 (Homo sapiens) (UniProt Q00537); conditions: Compound concentration 1000.0 nM
[31] = target: Cyclin-dependent kinase 2 homolog (Plasmodium falciparum (isolate 3D7)) (UniProt P61075); conditions: Compound concentration 1000.0 nM
[32] = target: Phosphatidylinositol 4,5-bisphosphate 3-kinase catalytic subunit alpha isoform (Homo sapiens) (UniProt P42336); conditions: Compound concentration 1000.0 nM
[33] = target: Serine/threonine-protein kinase D3 (Homo sapiens) (UniProt O94806); conditions: Compound concentration 1000.0 nM
[34] = target: Ribosomal protein S6 kinase alpha-6 (Homo sapiens) (UniProt Q9UK32); conditions: Compound concentration 1000.0 nM
[35] = target: Uncharacterized serine/threonine-protein kinase SBK3 (Homo sapiens) (UniProt P0C264); conditions: Compound concentration 1000.0 nM
[36] = target: Serine/threonine-protein kinase Sgk3 (Homo sapiens) (UniProt Q96BR1); conditions: Compound concentration 1000.0 nM
[37] = target: STE20-like serine/threonine-protein kinase (Homo sapiens) (UniProt Q9H2G2); conditions: Compound concentration 1000.0 nM
[38] = target: NUAK family SNF1-like kinase 2 (Homo sapiens) (UniProt Q9H093); conditions: Compound concentration 1000.0 nM
[39] = target: Serine/threonine-protein kinase TBK1 (Homo sapiens) (UniProt Q9UHD2); conditions: Compound concentration 1000.0 nM
[40] = target: Wee1-like protein kinase (Homo sapiens) (UniProt P30291); conditions: Compound concentration 1000.0 nM
[41] = target: Serine/threonine-protein kinase WNK3 (Homo sapiens) (UniProt Q9BYP7); conditions: Compound concentration 1000.0 nM
[42] = target: Histamine H1 receptor (Homo sapiens) (UniProt P35367); conditions: Compound concentration 10.0 uM
[43] = target: GABA-A receptor; anion channel (Rattus norvegicus) (UniProt O09028+P15431+P18506+P18508+P19969+P20236+P23574+P23576+P28471+P28473+P30191+P62813+P63079+P63138+Q91ZM7+Q9ES14); conditions: Compound concentration 10.0 uM

Ephrin type-A receptor 6 (Homo sapiens), sequence (Q9UF33 whole entry): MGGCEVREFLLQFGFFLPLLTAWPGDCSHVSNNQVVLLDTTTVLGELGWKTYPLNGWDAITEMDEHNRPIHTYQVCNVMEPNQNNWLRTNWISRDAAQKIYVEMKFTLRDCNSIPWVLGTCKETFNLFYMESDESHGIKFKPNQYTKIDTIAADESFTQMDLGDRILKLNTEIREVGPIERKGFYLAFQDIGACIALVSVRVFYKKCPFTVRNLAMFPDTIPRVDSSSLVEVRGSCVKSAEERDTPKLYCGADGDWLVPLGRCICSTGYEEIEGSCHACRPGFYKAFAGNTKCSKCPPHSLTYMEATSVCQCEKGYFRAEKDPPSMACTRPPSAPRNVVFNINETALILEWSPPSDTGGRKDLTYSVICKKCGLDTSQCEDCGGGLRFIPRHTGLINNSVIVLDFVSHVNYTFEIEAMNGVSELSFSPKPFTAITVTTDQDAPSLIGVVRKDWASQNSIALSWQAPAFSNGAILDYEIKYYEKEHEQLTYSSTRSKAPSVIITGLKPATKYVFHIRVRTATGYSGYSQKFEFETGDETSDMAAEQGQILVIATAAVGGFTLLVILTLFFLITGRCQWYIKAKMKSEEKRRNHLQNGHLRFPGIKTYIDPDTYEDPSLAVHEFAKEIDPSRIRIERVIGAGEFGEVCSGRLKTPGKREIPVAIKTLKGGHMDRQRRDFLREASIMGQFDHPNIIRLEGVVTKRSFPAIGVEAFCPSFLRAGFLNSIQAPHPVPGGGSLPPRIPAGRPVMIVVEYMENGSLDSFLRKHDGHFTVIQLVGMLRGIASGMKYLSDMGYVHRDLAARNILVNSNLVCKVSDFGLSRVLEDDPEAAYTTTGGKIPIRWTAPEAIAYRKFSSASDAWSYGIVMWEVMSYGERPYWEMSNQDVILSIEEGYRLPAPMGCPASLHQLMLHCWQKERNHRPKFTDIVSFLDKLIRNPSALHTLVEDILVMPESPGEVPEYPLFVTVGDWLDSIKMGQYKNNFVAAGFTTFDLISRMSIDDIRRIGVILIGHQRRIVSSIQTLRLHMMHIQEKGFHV
Serine/threonine-protein kinase D3 (Homo sapiens), sequence (O94806 whole entry): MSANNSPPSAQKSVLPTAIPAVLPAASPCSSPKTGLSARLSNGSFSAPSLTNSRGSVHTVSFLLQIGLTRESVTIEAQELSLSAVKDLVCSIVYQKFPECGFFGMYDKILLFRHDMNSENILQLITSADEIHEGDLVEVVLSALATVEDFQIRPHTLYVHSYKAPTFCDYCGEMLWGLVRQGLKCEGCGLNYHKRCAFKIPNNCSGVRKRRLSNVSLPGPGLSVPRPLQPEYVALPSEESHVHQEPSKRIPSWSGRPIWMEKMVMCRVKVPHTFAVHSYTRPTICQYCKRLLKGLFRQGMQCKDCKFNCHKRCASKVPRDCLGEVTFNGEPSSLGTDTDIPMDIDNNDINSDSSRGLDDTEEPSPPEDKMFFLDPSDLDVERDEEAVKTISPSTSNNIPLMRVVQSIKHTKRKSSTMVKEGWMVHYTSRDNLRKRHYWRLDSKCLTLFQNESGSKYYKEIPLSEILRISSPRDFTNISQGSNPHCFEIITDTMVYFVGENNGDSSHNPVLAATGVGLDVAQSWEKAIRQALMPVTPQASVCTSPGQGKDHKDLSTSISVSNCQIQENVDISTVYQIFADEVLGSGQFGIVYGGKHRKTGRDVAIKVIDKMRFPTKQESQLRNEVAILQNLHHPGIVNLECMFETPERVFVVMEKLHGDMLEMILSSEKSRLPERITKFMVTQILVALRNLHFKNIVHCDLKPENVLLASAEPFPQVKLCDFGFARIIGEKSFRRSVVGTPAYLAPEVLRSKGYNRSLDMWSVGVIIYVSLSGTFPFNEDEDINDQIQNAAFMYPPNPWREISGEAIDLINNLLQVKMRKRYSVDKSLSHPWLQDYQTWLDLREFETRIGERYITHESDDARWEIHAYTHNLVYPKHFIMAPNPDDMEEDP
Dual specificity mitogen-activated protein kinase kinase 7 (Homo sapiens), sequence (O14733 whole entry): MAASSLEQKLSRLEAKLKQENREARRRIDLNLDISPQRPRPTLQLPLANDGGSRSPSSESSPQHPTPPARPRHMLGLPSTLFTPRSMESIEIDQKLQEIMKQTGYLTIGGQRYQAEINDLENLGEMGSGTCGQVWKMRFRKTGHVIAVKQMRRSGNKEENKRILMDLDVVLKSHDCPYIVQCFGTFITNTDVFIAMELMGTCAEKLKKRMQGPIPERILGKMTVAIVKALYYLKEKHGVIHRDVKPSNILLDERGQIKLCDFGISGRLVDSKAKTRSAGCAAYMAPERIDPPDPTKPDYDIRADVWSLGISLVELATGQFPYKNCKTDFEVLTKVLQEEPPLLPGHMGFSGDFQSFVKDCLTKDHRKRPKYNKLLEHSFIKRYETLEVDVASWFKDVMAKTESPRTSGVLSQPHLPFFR
Serine/threonine-protein kinase TBK1 (Homo sapiens), sequence (Q9UHD2 whole entry): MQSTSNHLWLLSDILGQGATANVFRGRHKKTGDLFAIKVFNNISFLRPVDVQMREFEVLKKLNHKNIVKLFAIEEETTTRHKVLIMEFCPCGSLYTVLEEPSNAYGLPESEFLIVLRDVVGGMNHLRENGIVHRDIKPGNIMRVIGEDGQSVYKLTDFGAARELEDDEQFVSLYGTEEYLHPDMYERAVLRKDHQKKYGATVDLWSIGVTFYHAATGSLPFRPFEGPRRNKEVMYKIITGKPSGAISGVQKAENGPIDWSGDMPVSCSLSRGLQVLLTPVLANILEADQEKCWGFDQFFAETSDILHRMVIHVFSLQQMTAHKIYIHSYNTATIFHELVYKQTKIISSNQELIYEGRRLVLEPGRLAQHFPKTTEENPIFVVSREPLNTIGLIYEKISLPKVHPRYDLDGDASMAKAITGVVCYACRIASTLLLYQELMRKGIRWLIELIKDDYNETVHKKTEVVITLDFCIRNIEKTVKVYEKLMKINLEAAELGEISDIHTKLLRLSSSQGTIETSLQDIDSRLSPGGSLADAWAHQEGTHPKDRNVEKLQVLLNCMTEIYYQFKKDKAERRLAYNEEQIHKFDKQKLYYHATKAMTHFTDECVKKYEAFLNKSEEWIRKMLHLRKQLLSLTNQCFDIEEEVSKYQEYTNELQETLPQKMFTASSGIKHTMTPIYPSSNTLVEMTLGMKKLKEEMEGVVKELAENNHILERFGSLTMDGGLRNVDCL
Histamine H1 receptor (Homo sapiens), sequence (P35367 whole entry): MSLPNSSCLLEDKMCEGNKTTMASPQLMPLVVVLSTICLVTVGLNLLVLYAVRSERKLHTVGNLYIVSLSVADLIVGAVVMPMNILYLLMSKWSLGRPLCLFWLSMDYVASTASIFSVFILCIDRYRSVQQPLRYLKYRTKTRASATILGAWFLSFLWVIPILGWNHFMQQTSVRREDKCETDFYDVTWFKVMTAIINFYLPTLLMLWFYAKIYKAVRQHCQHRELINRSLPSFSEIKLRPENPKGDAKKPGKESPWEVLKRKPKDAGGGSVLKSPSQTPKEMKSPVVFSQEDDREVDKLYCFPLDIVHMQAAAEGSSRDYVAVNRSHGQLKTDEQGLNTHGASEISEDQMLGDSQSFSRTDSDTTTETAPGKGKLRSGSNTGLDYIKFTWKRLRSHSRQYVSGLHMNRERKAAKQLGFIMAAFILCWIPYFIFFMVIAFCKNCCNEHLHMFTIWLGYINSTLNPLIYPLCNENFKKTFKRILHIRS
Mitogen-activated protein kinase kinase kinase 2 (Homo sapiens), sequence (Q9Y2U5 whole entry): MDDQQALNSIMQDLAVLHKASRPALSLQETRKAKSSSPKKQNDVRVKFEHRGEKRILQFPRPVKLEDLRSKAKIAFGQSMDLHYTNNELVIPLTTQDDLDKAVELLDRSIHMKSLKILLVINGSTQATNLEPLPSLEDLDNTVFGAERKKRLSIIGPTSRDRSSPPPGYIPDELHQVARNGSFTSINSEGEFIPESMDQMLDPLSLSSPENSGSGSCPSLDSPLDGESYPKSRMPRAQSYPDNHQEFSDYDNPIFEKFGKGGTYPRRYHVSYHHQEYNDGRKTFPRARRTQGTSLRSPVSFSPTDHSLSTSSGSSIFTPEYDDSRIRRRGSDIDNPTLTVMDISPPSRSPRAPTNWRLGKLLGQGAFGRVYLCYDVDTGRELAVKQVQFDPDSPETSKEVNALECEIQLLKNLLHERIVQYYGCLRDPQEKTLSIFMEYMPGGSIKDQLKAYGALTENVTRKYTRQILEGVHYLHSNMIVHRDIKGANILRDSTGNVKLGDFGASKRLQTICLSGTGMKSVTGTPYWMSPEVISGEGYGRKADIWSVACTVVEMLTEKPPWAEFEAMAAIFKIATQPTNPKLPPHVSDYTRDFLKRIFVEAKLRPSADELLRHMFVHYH
Cytoplasmic tyrosine-protein kinase BMX (Homo sapiens), sequence (P51813 whole entry): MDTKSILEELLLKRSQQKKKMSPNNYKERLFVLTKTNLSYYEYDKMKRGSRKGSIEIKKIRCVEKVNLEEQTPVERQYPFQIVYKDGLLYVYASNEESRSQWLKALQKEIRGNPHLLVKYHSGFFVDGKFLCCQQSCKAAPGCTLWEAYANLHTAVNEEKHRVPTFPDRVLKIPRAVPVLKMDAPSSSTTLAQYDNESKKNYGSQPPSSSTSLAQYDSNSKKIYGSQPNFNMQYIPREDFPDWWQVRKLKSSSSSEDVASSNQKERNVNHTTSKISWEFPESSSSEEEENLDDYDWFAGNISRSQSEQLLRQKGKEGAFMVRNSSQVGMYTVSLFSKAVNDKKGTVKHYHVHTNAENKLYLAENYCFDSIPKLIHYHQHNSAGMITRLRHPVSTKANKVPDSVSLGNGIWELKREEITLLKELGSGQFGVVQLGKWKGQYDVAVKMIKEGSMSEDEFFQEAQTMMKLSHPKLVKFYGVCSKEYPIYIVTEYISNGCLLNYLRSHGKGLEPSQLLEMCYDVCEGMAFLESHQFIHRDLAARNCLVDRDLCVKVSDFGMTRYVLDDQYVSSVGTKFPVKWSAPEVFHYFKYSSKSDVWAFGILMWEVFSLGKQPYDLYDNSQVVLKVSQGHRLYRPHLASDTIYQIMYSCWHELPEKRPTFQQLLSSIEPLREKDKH

COc1ccc2c(c1)O[C@H](c1ccc(OC)c(OC)c1)C[C@@H]2NC(=O)C1(c2ccc3c(c2)OC(F)(F)O3)CC1 [A-1596584]
% Inhibition of Control Specific Binding (Mean n=2) [1]: -38.6% | % Inhibition of Control Specific Binding (Mean n=2) [2]: -14.1% | % Inhibition of Control Specific Binding (Mean n=2) [3]: 4% | % Inhibition of Control Specific Binding (Mean n=2) [4]: 5% | residual activity [5]: 100% | residual activity [6]: 95% | residual activity [7]: 100% | residual activity [8]: 100% | residual activity [9]: 100% | residual activity [10]: 100% | residual activity [11]: 88% | residual activity [12]: 100% | residual activity [13]: 100% | residual activity [14]: 87% | residual activity [15]: 100% | residual activity [16]: 97% | residual activity [17]: 100% | residual activity [18]: 100% | residual activity [19]: 97% | residual activity [20]: 100% | residual activity [21]: 72% | residual activity [22]: 99% | residual activity [23]: 89% | residual activity [24]: 91% | residual activity [25]: 100% | residual activity [26]: 100% | residual activity [27]: 100% | residual activity [28]: 100% | residual activity [29]: 100% | residual activity [30]: 100% | residual activity [31]: 92% | residual activity [32]: 82% | residual activity [33]: 100% | residual activity [34]: 91% | residual activity [35]: 100% | residual activity [36]: 100% | residual activity [37]: 100% | residual activity [38]: 100% | residual activity [39]: 99% | residual activity [40]: 100% | residual activity [41]: 100% | inhibition [42]: 49.9% | inhibition [43]: -8.42%

COc1ccc2c(c1)O[C@@H](c1ccc(OC)c(OC)c1)C[C@H]2NC(=O)C1(c2ccc3c(c2)OC(F)(F)O3)CC1 [A-1596586]
% Inhibition of Control Specific Binding (Mean n=2) [1]: -51.6% | % Inhibition of Control Specific Binding (Mean n=2) [2]: -18.2% | % Inhibition of Control Specific Binding (Mean n=2) [3]: -6.1% | % Inhibition of Control Specific Binding (Mean n=2) [4]: 10.4% | residual activity [5]: 91% | residual activity [6]: 96% | residual activity [7]: 100% | residual activity [8]: 98% | residual activity [9]: 100% | residual activity [10]: 89% | residual activity [11]: 91% | residual activity [12]: 89% | residual activity [13]: 90% | residual activity [14]: 94% | residual activity [15]: 100% | residual activity [16]: 91% | residual activity [17]: 100% | residual activity [18]: 100% | residual activity [19]: 95% | residual activity [20]: 100% | residual activity [21]: 100% | residual activity [22]: 88% | residual activity [23]: 100% | residual activity [24]: 86% | residual activity [25]: 100% | residual activity [26]: 100% | residual activity [27]: 88% | residual activity [28]: 100% | residual activity [29]: 85% | residual activity [30]: 100% | residual activity [31]: 84% | residual activity [32]: 86% | residual activity [33]: 97% | residual activity [34]: 91% | residual activity [35]: 100% | residual activity [36]: 84% | residual activity [37]: 100% | residual activity [38]: 76% | residual activity [39]: 86% | residual activity [40]: 99% | residual activity [41]: 100% | inhibition [42]: 22.3% | inhibition [43]: 11.1%

Source: ChEMBL document CHEMBL4507262, “Data for DCP probe A-1596586” (2021)
